Results reported in patent publication US9364494B2, “Somatostatin 2 receptor (sst2), deoxycytidine kinase (dck) and uridine monophosphate kinase (umk) pancreatic gene therapy” (Institut National de la Sante et de la Recherche Medicale …, priority 2007, dated 2016).

How the values were obtained:
PC1.0 cells [1] = test system: PC1.0 cells; design: species or system Syrian golden hamsters; details: hamster, in vivo, ip, 120 mg/kg/day
PC1.0 cells [2] = type: in vivo; details: day 15 post-cell implantation; 25 to 50 μg expression vector intra-tumoral; gemcitabine i.p. 80 to 120 mg/kg/day every three days

Structure (SMILES): Cl.Nc1ccn([C@@H]2O[C@H](CO)[C@@H](O)C2(F)F)c(=O)n1 [Gemcitabine, No DNA, 2′-deoxy-2′,2′-difluorocytidine monohydrochloride]
- tumor evolution on day 15 (PC1.0 cells [1]): only slow down the tumor progression
- Tumor progression (percentage) (PC1.0 cells [2]): +150 to 378 percentage
